Measured values published in patent US20260285857A1, “BICYCLIC AND HETEROCYCLIC AMIDE COMPOUNDS” (priority 2024, published 2026).

System: immunoglobulin light chain protein WIL-FL T46L
Experiment: Differential scanning fluorimetry (thermal shift) assay
Format: binding
Conditions: temperature shift [Tm]compound-[Tm]vehicle, recombinant WIL-FL T46L

Row | SMILES | DSF (Table A) | DSF (Table B)
1 | Cc1cc(N2CC[C@@](C)(c3ccc(F)cc3)C2)cn2nc(C(=O)N3CC[C@@]4(CCN(c5cccc(C(=O)O)n5)C4)C3)nc12 [Compound 428] | ***** (>2.5° C.=*****) | 
2 | CCS(=O)(=O)NCC12COC(c3nc4c(C)cc(N5CC[C@](C)(c6ccccc6)C5)cn4n3)(C1)C2c1n[nH]c(C)n1 (stereo partly drawn) [Compound 587] |  | ***** (>2.5° C.=*****)
3 | Cc1cc(N2CCC(NC(=O)c3nc4c(C)cc(N5CC[C@](C)(c6ccccc6)C5)cn4n3)CC2)cc(C(=O)O)n1 [Compound 251] | ***** (>2.5° C.=*****) | 
4 | C[C@]1(c2ccccc2)CCN(c2cc(CO)c3nc(C45CC(CO4)C5c4ncn[nH]4)nn3c2)C1 (stereo partly drawn) [Compound 479] |  | ***** (>2.5° C.=*****)
5 | CNC(=O)c1cc2c(N)cc(N3CC[C@](C)(c4ccccc4)C3)cn2n1 [Compound 292] | *** (>1-1.5° C.=***) | 
6 | Cc1nc(C2C3COC2(c2nc4c(CO)cc(N5CC[C@](C)(c6ccccc6)C5)cn4n2)C3)n[nH]1 (stereo partly drawn) [Compound 344] | ***** (>2.5° C.=*****) | 
7 | Cc1ccc(N2CC[C@@]3(CCN(C(=O)c4nc5c(C)cc(N6CC[C@](C)(c7ccccc7)C6)cn5n4)C3)C2)nc1C(=O)O [Compound 710] |  | ***** (>2.5° C.=*****)
8 | Cc1cc(N2CC[C@](CO)(c3ccccc3)C2)cn2nc(C(=O)N3CC[C@@]4(CCN(c5cccc(C(=O)O)n5)C4)C3)nc12 [Compound 332] | ***** (>2.5° C.=*****) | 
9 | Cc1cc(N2CC[C@](C)(c3ccccc3)C2)cn2nc(S(=O)(=O)NC3CCNC3)nc12 (stereo partly drawn) [Compound 326] | ***** (>2.5° C.=*****) | 
10 | COc1ccc(N2CCC3(CCN(C(=O)c4nc5c(C)cc(N6CC[C@](C)(c7ccccc7)C6)cn5n4)C3)C2)nc1C(=O)O (stereo partly drawn) [Compound 625] |  | ***** (>2.5° C.=*****)
11 | Cc1cc(N2CC[C@](C)(c3ccccc3)C2)cn2nc(C(=O)NC3CC(N4C[C@@H](O)[C@@H](O)C4)C3)nc12 (stereo partly drawn) [Compound 361] | ***** (>2.5° C.=*****) | 
12 | Cc1cc(N2CC[C@](C)(c3ccccc3)C2)cn2nc(C(=O)NC3CC4(CCC4N4CCC(C(=O)O)CC4)C3)nc12 (stereo partly drawn) [Compound 374] | ***** (>2.5° C.=*****) | 
13 | Cc1cc(N2CC[C@](C)(c3ccccc3)C2)cn2nc(C(=O)NC3CCN(c4cccc(C(=O)O)n4)C3)nc12 (stereo partly drawn) [Compound 19, 6-(3-(8-methyl-6-((R)-3-methyl-3-phenylpyrrolidin-1-yl)-[1,2,4]triazolo[1,5-a]pyridine-2-carboxamido)pyrrolidin-1-yl)picolinic acid] | ***** (>2.5° C.=*****) | 
14 | Cc1cc(N2CC[C@](C)(c3ccccc3)C2)cn2nc(C(=O)N3CC4CN(c5cccc(C(=O)O)n5)CC4(C(F)(F)F)C3)nc12 (stereo partly drawn) [Compound 249] | ***** (>2.5° C.=*****) | 
15 | Cc1cc(N2CC[C@](C)(c3ccccc3)C2)cn2nc(C(=O)NC34COC(CN(c5cccc(C(=O)O)n5)C3)C4)nc12 (mixture of isomers) [Compound 690, 6-[1-[[8-methyl-6-[rac-(3R)-3-methyl-3-phenyl-pyrrolidin-1-yl]-[1,2,4]triazolo[1,5-a]pyridine-2-carbonyl]amino]-6-oxa-3-azabicyclo[3.2.1]octan-3-yl]pyridine-2-carboxylic acid] |  | ***** (>2.5° C.=*****)
16 | Cc1nc(CC2C3COC2(c2nc4c(C)cc(N5CC[C@](C)(c6ccccc6)C5)cn4n2)C3)n[nH]1 (stereo partly drawn) [Compound 9, 8-methyl-6-[(3R)-3-methyl-3-phenyl-pyrrolidin-1-yl]-2-[5-[(5-methyl-1H-1,2,4-triazol-3-yl)methyl]-2-oxabicyclo[2.1.1]hexan-1-yl]-[1,2,4]triazolo[1,5-a]pyridine] | ***** (>2.5° C.=*****) | 
17 | Cc1cc(N2CC[C@](C)(c3ccccc3)C2)cn2nc(C34CC(CO3)C4N3CC4(CCOCC4)NC3=O)nc12 (stereo partly drawn) [Compound 522] |  | ***** (>2.5° C.=*****)
18 | CCC(=O)NCC12COC(c3nc4c(C)cc(N5CC[C@](C)(c6ccccc6)C5)cn4n3)(C1)C2 [Compound 462] |  | ***** (>2.5° C.=*****)
19 | Cc1cc(N2CC[C@](C)(c3ccc(Cl)c(F)c3)C2)cn2nc(C(=O)N3CC[C@@]4(CCN(c5cccc(C(=O)O)n5)C4)C3)nc12 [Compound 751] |  | ***** (>2.5° C.=*****)
20 | Cc1cc(N2CC[C@](C)(c3ccccc3)C2)cn2nc(C(=O)N3CCC4C3CCN4c3cccc(C(=O)O)n3)nc12 (stereo partly drawn) [Compound 611] |  | ***** (>2.5° C.=*****)
21 | Cc1cc(N2CC[C@](C)(c3ccccc3)C2)cn2nc(C(=O)N3CCC34CCCN(c3cccc(C(=O)O)n3)C4)nc12 (stereo partly drawn) [Compound 195] | ***** (>2.5° C.=*****) | 
22 | Cc1cc(N2CC[C@](C)(c3cccc(Cl)c3)C2)cn2nc(C(=O)N3CC[C@@]4(CCN(c5cccc(C(=O)O)n5)C4)C3)nc12 [Compound 747] |  | ***** (>2.5° C.=*****)
23 | Cc1cc(N2CC[C@](C)(c3ccccc3)C2)cn2nc(C(=O)NC3CC(N4CC5C(C4)C5C(=O)O)C3)nc12 (stereo partly drawn) [Compound 354] | ***** (>2.5° C.=*****) | 
24 | Cc1cc(N2CC[C@](C)(c3ccccc3)C2)cn2nc(C(=O)N3CC[C@@]4(CCN(C(=O)CC(C)(C)O)C4)C3)nc12 [Compound 721] |  | ***** (>2.5° C.=*****)

Row | SMILES | DSF (Table A) | DSF (Table B)
25 | CCOC(=O)Nc1n[nH]c(C2C3COC2(c2nc4c(C)cc(N5CC[C@](C)(c6ccccc6)C5)cn4n2)C3)n1 (stereo partly drawn) [Compound 551] |  | ***** (>2.5° C.=*****)
26 | Cc1cc(N2CC[C@](C)(c3ccccc3)C2)cn2nc(C(=O)N3CC4CCN(c5cccc(C(=O)O)n5)C4C3)nc12 (stereo partly drawn) [Compound 645] |  | ***** (>2.5° C.=*****)
27 | Cc1n[nH]c(C2C3COC2(c2nc4c(CN)cc(N5CC[C@](C)(c6ccccc6)C5)cn4n2)C3)n1 (stereo partly drawn) [Compound 483] |  | ***** (>2.5° C.=*****)
28 | Cc1cc(N2CC[C@](C)(c3ccccc3)C2)cn2nc(C(=O)N3CC[C@@]4(CCN(C5CC(C)(C(=O)O)C5)C4)C3)nc12 (stereo partly drawn) [Compound 725] |  | ***** (>2.5° C.=*****)
29 | Cc1cc(N2CC[C@](C)(c3ccccc3)C2)cn2nc(C(=O)NC34CC(O)(C3)C4)nc12 [Compound 132] | ***** (>2.5° C.=*****) | 
30 | Cc1cc(N2CC(C)(c3ccccc3)C2)cn2nc(C(=O)N3C[C@@H]4CN(c5cccc(C(=O)O)n5)C[C@@H]4C3)nc12 [Compound 399] | ***** (>2.5° C.=*****) | 
31 | Cc1cc(N2CC[C@](C)(c3ccccc3)C2)cn2nc(C(=O)N3C[C@@]4(C)CN(c5cccc(C(=O)O)n5)C[C@@]4(C)C3)nc12 [Compound 252] | ***** (>2.5° C.=*****) | 
32 | COC(C)(CC(=O)N1CC2(C1)CN(C1C3COC1(c1nc4c(C)cc(N5CC[C@](C)(c6ccccc6)C5)cn4n1)C3)C(=O)N2)C(=O)O (stereo partly drawn) [Compound 518] |  | ***** (>2.5° C.=*****)
33 | Cc1cc(N2CC[C@](C)(c3ccccc3)C2)cn2nc(C(=O)N3CCC4(CC3)CCN(c3cccc(C(=O)O)n3)C4)nc12 [Compound 239] | ***** (>2.5° C.=*****) | 
34 | CCC1(c2ccc(C)cc2)CN(c2cc(C)c3nc(C(=O)N4C[C@@H]5CN(c6cccc(C(=O)O)n6)C[C@@H]5C4)nn3c2)C1 [Compound 396] | ***** (>2.5° C.=*****) | 
35 | Cc1cc(N2CC[C@](C)(c3ccccc3)C2)cn2nc(C34CC(CO3)C4N3CC4(CC4)NC3=O)nc12 (stereo partly drawn) [Compound 78] | ***** (>2.5° C.=*****) | 
36 | Cc1cc(N2CC[C@](C)(c3ccccc3)C2)cn2nc(C(=O)N3CCC4(CC3)CC(N3CC5C(C3)C5C(=O)O)CO4)nc12 (stereo partly drawn) [Compound 370] | ***** (>2.5° C.=*****) | 
37 | Cc1cc(N2CC[C@](C)(c3ccccc3)C2)cn2nc(C34CC(CO3)C4C(C)(C)O)nc12 (stereo partly drawn) [Compound 73] | ***** (>2.5° C.=*****) | 
38 | Cc1cc(N2CC[C@@](C)(c3cccc(F)c3)C2)cn2nc(C(=O)N3CC[C@@]4(CCN(c5cccc(C(=O)O)n5)C4)C3)nc12 [Compound 763, 6-((R)-7-(6-((S)-3-(3-fluorophenyl)-3-methylpyrrolidin-1-yl)-8-methyl-[1,2,4]triazolo[1,5-a]pyridine-2-carbonyl)-2,7-diazaspiro[4.4]nonan-2-yl)picolinic acid] |  | ***** (>2.5° C.=*****)
39 | Cc1cc(N2CC[C@](C)(c3ccccc3)C2)cn2nc(C34CC(CN)(C3)OC4(C)C)nc12 [Compound 65] | **** (>1.5-2.5° C.=****) | 
40 | Cc1cc(N2CC[C@](C)(c3ccccc3)C2)cn2nc(C(=O)N3CC[C@@]4(CCN(C(=O)CC(C)(O)C(=O)O)C4)C3)nc12 (stereo partly drawn) [Compound 731, 2-hydroxy-2-methyl-4-[(5R)-2-[8-methyl-6-[(3R)-3-methyl-3-phenyl-pyrrolidin-1-yl]-[1,2,4]triazolo[1,5-a]pyridine-2-carbonyl]-2,7-diazaspiro[4.4]nonan-7-yl]-4-oxo-butanoic acid] |  | ***** (>2.5° C.=*****)
41 | Cc1cc(OC[C@H](C)c2ccccc2)cn2nc(C34CC(CO3)C4Cn3ncnc3C)nc12 (stereo partly drawn) [Compound 486, 8-methyl-2-[5-[(5-methyl-1,2,4-triazol-1-yl)methyl]-2-oxabicyclo[2.1.1]hexan-1-yl]-6-[(2R)-2-phenylpropoxy]-[1,2,4]triazolo[1,5-a]pyridine] |  | **** (>1.5-2.5° C.=****)
42 | Cc1cc(N2CC[C@](C)(c3ccccc3)C2)cn2nc(C(=O)NC3CC4(C3)CC(N3CC5C(C3)C5c3nn[nH]n3)C4)nc12 (stereo partly drawn) [Compound 368] | ***** (>2.5° C.=*****) | 
43 | Cc1cc(N2CC[C@](C)(c3ccccc3)C2)cc2oc(C(=O)N3CC4CN(c5cccc(C(=O)O)n5)CC4C3)nc12 (stereo partly drawn) [Compound 40, 6-(5-(4-methyl-6-((R)-3-methyl-3-phenylpyrrolidin-1-yl)benzo[d]oxazole-2-carbonyl)hexahydropyrrolo[3,4-c]pyrrol-2(1H)-yl)picolinic acid] | ***** (>2.5° C.=*****) | 
44 | Cc1ccn(C2(C)CCN(c3cc(C)c4nc(C(=O)N5CC[C@@]6(CCN(c7cccc(C(=O)O)n7)C6)C5)nn4c3)C2)n1 (stereo partly drawn) [Compound 745] |  | *** (>1-1.5° C.=***)
45 | Cc1cc(N2CC[C@](C)(c3ccccc3)C2)cn2nc(C(=O)NC3CCC34CN(c3cccc(C(=O)O)n3)C4)nc12 (stereo partly drawn) [Compound 228] | ***** (>2.5° C.=*****) | 
46 | Cc1cc(N2CC[C@](C)(c3ccccc3)C2)cn2nc(C(=O)N3C[C@@H](O)[C@@H](O)C3)nc12 [Compound 115] | ***** (>2.5° C.=*****) | 
47 | Cc1cc(N2CC[C@](C)(c3ccccc3)C2)cn2nc(C(=O)NCC3(O)CC3)nc12 [Compound 120] | ***** (>2.5° C.=*****) | 
48 | Cc1cc(N2CC[C@](C)(c3ccccc3)C2)cn2nc(C(=O)NC3COC4(CNC4)C3)nc12 (stereo partly drawn) [Compound 152] | ***** (>2.5° C.=*****) | 
